“Also recorded” adds a separate entry of the source. Where a SMILES comes first, the peptide text is derived from it. Bridges are numbered along the chain shown (N, C = ends). [ ]: non-standard residue; d: D form. Hyp = O=C(O)[C@@H]1C[C@@H](O)CN1
What was measured:
[1] = tested on: isolated mouse phrenic-hemidiaphragm nerve-muscle preparations; settings: for IC50: pH 7.4
[2] = tested on: mice; settings: mouse, in vivo
[3] = tested on: mice; settings: mouse, in vivo, ip
[4] = biological target: Torpedo muscle-type nicotinic acetylcholine receptors (nAChRs) (Tetronarce californica, UniProt P02710+P02714+P02718); format: binding
Chain of Torpedo muscle-type nicotinic acetylcholine receptors (nAChRs) (P02710 whole entry, looked up): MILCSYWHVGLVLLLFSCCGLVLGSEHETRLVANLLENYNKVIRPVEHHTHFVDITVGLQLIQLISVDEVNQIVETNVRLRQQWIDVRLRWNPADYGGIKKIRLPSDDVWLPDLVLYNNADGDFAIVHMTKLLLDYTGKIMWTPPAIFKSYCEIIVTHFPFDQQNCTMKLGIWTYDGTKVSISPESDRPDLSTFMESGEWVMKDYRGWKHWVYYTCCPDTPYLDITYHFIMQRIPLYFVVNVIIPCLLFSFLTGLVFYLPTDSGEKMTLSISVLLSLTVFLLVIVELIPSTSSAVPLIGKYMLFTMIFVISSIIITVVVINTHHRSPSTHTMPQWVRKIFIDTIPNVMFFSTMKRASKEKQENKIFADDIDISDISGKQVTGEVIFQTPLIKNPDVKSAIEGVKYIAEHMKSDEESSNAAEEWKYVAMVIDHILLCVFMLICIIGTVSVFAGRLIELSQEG
Chain of Torpedo muscle-type nicotinic acetylcholine receptors (nAChRs) (P02714 whole entry, looked up): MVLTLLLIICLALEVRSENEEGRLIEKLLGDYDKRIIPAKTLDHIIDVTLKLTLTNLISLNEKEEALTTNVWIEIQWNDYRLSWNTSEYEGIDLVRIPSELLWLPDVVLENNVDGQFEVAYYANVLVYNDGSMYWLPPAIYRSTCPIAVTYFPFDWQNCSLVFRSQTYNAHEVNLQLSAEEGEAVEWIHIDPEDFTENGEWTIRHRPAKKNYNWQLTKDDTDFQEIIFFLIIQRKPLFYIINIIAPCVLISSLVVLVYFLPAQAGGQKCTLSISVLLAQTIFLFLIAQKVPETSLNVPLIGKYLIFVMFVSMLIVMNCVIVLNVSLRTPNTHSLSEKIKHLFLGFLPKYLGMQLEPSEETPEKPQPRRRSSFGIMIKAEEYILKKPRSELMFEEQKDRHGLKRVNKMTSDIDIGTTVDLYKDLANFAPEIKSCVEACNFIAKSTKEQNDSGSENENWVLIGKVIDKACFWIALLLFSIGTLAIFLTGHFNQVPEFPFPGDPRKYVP
Chain of Torpedo muscle-type nicotinic acetylcholine receptors (nAChRs) (P02718 whole entry, looked up): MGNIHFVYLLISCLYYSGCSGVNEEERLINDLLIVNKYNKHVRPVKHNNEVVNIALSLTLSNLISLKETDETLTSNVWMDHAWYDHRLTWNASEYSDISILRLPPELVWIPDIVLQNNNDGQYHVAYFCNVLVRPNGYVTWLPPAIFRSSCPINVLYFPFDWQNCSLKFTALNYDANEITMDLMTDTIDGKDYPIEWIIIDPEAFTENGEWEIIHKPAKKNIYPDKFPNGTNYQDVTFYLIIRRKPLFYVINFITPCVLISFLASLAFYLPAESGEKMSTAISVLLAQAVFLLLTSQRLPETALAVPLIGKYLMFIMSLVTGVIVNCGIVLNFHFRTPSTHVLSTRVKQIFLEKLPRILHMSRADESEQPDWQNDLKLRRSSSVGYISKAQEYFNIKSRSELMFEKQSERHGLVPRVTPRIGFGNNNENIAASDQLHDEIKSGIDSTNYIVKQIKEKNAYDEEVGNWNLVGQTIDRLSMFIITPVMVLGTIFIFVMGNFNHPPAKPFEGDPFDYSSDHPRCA

[5] = tested on: hemidiaphragm muscle; parameters: species or system mouse

Structure (SMILES)	maximal block of contraction [1]	potency relative to αC-conotoxin PrXA [1]	IC50 [1] [nM]	mice lethality [2] [%]	time to death [2] [min]	IC50 (mice death) ([2]; ip) [µg/g]	inhibition of muscle contraction [1]	time to full block of muscle contraction [1] [min]	D/T (dead/treated mice) [3]	inhibition of [^125I]-α-bungarotoxin binding [4]	effect on contractility force under direct electrical stimulation [5]
CC[C@H](C)[C@H](NC(=O)[C@H](Cc1ccc(O)cc1)NC(=O)[C@H](Cc1c[nH]cn1)NC(=O)[C@@H]1CSSC[C@H](NC(=O)[C@@H]2CCCN2C(=O)[C@H](CCCNC(=N)N)NC(=O)[C@H](CC(C)C)NC(=O)[C@H](CC(=O)O)NC(=O)[C@@H]2CCCN2C(=O)[C@H](CCCCN)NC(=O)CNC(=O)CN)C(=O)N[C@@H](Cc2c[nH]cn2)C(=O)N2CCC[C@H]2C(=O)N2CCC[C@H]2C(=O)N1)C(=O)N1CCC[C@H]1C(=O)N[C@@H](CCCNC(=N)N)C(=O)N1CCC[C@H]1C(=O)N[C@@H](CCCCN)C(=O)N1CCC[C@H]1C(=O)N[C@@H](CCCNC(=N)N)C(=O)O [Waglerin 1] (H-GGKPDLRPCHPPCHYIPRPKPR-OH; disulfide 9-13)	full block of contraction	twofold less potent	58 ± 2	–	–	–	–	–	–	–	–
CC[C@H](C)[C@H](NC(=O)[C@H](Cc1ccc(O)cc1)NC(=O)[C@H](Cc1cnc[nH]1)NC(=O)[C@@H]1CSSC[C@H](NC(=O)[C@@H]2CCCN2C(=O)[C@H](CCCNC(=N)N)NC(=O)[C@H](CC(C)C)NC(=O)[C@H](CC(=O)O)NC(=O)[C@@H]2CCCN2C(=O)[C@H](CCCCN)NC(=O)CNC(=O)CN)C(=O)N[C@@H](Cc2cnc[nH]2)C(=O)N2CCC[C@H]2C(=O)N2CCC[C@H]2C(=O)N1)C(=O)N1CCC[C@H]1C(=O)N[C@@H](CCCNC(=N)N)C(=O)N1CCC[C@H]1C(=O)N[C@@H](CCCCN)C(=O)N1CCC[C@H]1C(=O)N[C@@H](CCCNC(=N)N)C(=O)O [Waglerin 1] (H-GGKPDLRPCHPPCHYIPRPKPR-OH; disulfide 9-13)	–	–	–	100	≤ 4.7 ± 0.7	0.7	–	–	–	–	–
CC[C@H](C)[C@H](NC(=O)CNC(=O)[C@H](Cc1ccc(O)cc1)NC(=O)[C@@H](N)[C@@H](C)O)C(=O)N[C@@H](Cc1ccc(O)cc1)C(=O)N[C@@H](CC(=O)O)C(=O)N[C@@H](C)C(=O)N[C@@H](CCCCN)C(=O)N1CCC[C@H]1C(=O)N1C[C@H](O)C[C@H]1C(=O)N[C@@H](Cc1ccccc1)C(=O)N[C@@H](CO)C(=O)N[C@H]1CSSC[C@@H](C(=O)N[C@H](C(=O)N[C@@H](CC(C)C)C(=O)N2CCC[C@H]2C(=O)N2C[C@H](O)C[C@H]2C(=O)N[C@@H](CC(N)=O)C(=O)N[C@@H](CC(C)C)C(=O)N[C@@H](CCCNC(=N)N)C(=O)N2C[C@H](O)C[C@H]2C(=O)N[C@@H](CCCCN)C(=O)N[C@@H](Cc2ccccc2)C(=O)N[C@@H](CCCCN)C(=O)N[C@@H](CCC(=O)O)C(N)=O)C(C)C)NC(=O)CNC(=O)CNC(=O)[C@H](CCCNC(=N)N)NC(=O)[C@H](CC(C)C)NC(=O)CNC(=O)[C@H](C)NC1=O [αC-conotoxin PrXA] (H-TYGIYDAKP[Hyp]FSCAGLRGGCVLP[Hyp]NLR[Hyp]KFKE-NH2; disulfide 13-20)	–	–	23 ± 2	–	–	–	concentration- and time-dependent inhibition of muscle contraction	15	3/3	fully inhibited	did not alter muscle contractility force; also recorded: Lack of toxin effect on direct muscle stimulation

From PMC5543128 (Scientific Reports, 2017)
